# Measurements published in ChEMBL document CHEMBL4706569, “Hydroxy-corrole and its gallium(III) complex as new photosensitizer for photodynamic therapy against breast carcinoma” (Eur J Med Chem, 2020).
# Active and inactive are the calls of the source. No cut-off for these calls is given here.
# Key:
# [1] = Absorption property of the compound in DMF assessed as soret band molar extinction coefficient at 1 uM by UV-visible spectrophotometric method; format: physicochemical
# MDA-MB-231 [2] = assay: Induction of apoptosis in human MDA-MB-231 cells assessed as early apoptotic cells at 2.5 uM under dark condition by annexin V-FITC/PI based flow cytometric analysis (reference value: 0 %); format: functional
# [3] = Absorption property of the compound in DMF assessed as soret band absorption wavelength at 1 uM by UV-visible spectrophotometric method; format: physicochemical
# 4T1 = assay: Phototoxicity against mouse 4T1 cells assessed as reduction in cell viability preincubated for 4 hrs followed by irradiation with 0.3 W/cm2 of 625 +/- 2 nanometer LED light for 1 hr and measured after 42 hrs by MTT assay; format: functional, cell-based; details: 4T1, light or radiation study
# MDA-MB-231 [4] = assay: Induction of cell cycle arrest in human MDA-MB-231 cells assessed as accumulation at sub-G1 phase at 5 uM measured after 24 hrs under dark condition by RNase A/propidium iodide staining based flow cytometry analysis (reference value: 2.56 %); format: functional
# MDA-MB-231 [5] = assay: Induction of cell cycle arrest in human MDA-MB-231 cells assessed as accumulation at S phase at 5 uM measured after 24 hrs under dark condition by RNase A/propidium iodide staining based flow cytometry analysis (reference value: 24.8 %); format: functional
# [6] = Absorption property of the compound in DMF assessed as Q band molar extinction coefficient at 1 uM by UV-visible spectrophotometric method; format: physicochemical
# MDA-MB-231 [7] = assay: Induction of cell cycle arrest in human MDA-MB-231 cells assessed as accumulation at G2 phase at 5 uM preincubated with 625 +/- 2 nanometer LED light irradiation for 1 hrs and measured after 24 hrs by RNase A/propidium iodide staining based flow cytometry analysis (reference value: 22.1 %); format: functional; details: time 25 hrs
# MDA-MB-231 [8] = assay: Phototoxicity against human MDA-MB-231 cells assessed as reduction in cell viability preincubated for 4 hrs followed by irradiation with 0.3 W/cm2 of 625 +/- 2 nanometer LED light for 1 hr and measured after 42 hrs by MTT assay; format: functional, cell-based; details: MDA-MB-231, light or radiation study
# MDA-MB-231 [9] = assay: Induction of apoptosis in human MDA-MB-231 cells assessed as necrotic cells at 2.5 uM preincubated for 4 hrs followed by 625 +/- 2 nanometer LED light irradiation for 1 hr and measured after 18 hrs by annexin V-FITC/PI based flow cytometric analysis (reference value: 0.41 %); format: functional; details: time 23 hrs
# [10] = Drug localization in mitochondria of human MDA-MB-231 cells at 20 uM incubated for 4 hrs by Mito-tracker dye based confocal laser scanning microscopy; format: ADME; details: mda-mb-231, 4 h
# [11] = Absorption property of the compound in DMF assessed as soret band molar attenuation coefficient at 1 uM by UV-visible spectrophotometric method; format: physicochemical
# [12] = Drug uptake in human MDA-MB-231 cells at 10 uM by flow cytometric analysis; format: ADME, cell-based; details: mda-mb-231, 10 µM, TDE = time-dependent effect
# MDA-MB-231 [13] = assay: Induction of cell cycle arrest in human MDA-MB-231 cells assessed as accumulation at sub-G1 phase at 5 uM preincubated with 625 +/- 2 nanometer LED light irradiation for 1 hrs and measured after 24 hrs by RNase A/propidium iodide staining based flow cytometry analysis (reference value: 3.93 %); format: functional; details: time 25 hrs
# MDA-MB-231 [14] = assay: Induction of ROS generation in human MDA-MB-231 cells at 2.5 uM in dark by DCFH-DA staining based fluorescence microscopy; format: functional, cell-based
# [15] = Induction of singlet oxygen generation in DMF solution assessed as singlet oxygen quantum yield at 1 uM irradiated with 625 +/- 2 nanometer laser light by DPBF-based assay; format: functional
# MDA-MB-231 [16] = assay: Induction of mitochondrial depolarization in human MDA-MB-231 cells at 2.5 uM preincubated for 4 hrs followed by 625 +/- 2 nanometer LED light irradiation for 1 hr and measured after 18 hrs by JC1 staining based fluorescence microscopy; format: functional, cell-based; details: time 23.0 hrs
# [17] = Dark toxicity in human MDA-MB-231 cells assessed as reduction in cell viability by MTT assay; format: cell-based
# MDA-MB-231 [18] = assay: Induction of cell cycle arrest in human MDA-MB-231 cells assessed as accumulation at G1 phase at 5 uM measured after 24 hrs under dark condition by RNase A/propidium iodide staining based flow cytometry analysis (reference value: 47.5 %); format: functional
# [19] = Drug localization in lysosome of human MDA-MB-231 cells at 20 uM incubated for 4 hrs by Lyso-tracker dye based confocal laser scanning microscopy; format: ADME, subcellular; details: mda-mb-231, 4 h
# MDA-MB-231 [20] = assay: Induction of cell cycle arrest in human MDA-MB-231 cells assessed as accumulation at S phase at 5 uM preincubated with 625 +/- 2 nanometer LED light irradiation for 1 hrs and measured after 24 hrs by RNase A/propidium iodide staining based flow cytometry analysis (reference value: 29.0 %); format: functional; details: time 25 hrs
# MDA-MB-231 [21] = assay: Induction of cell cycle arrest in human MDA-MB-231 cells assessed as accumulation at G2 phase at 5 uM measured after 24 hrs under dark condition by RNase A/propidium iodide staining based flow cytometry analysis (reference value: 24.4 %); format: functional
# [22] = Dark toxicity in mouse 4T1 cells assessed as reduction in cell viability by MTT assay; format: cell-based
# MDA-MB-231 [23] = assay: Induction of apoptosis in human MDA-MB-231 cells assessed as early apoptotic cells at 2.5 uM preincubated for 4 hrs followed by 625 +/- 2 nanometer LED light irradiation for 1 hr and measured after 18 hrs by annexin V-FITC/PI based flow cytometric analysis (reference value: 0.27 %); format: functional; details: time 23 hrs
# HUVEC = assay: Phototoxicity against HUVEC assessed as reduction in cell viability preincubated for 4 hrs followed by irradiation with 0.3 W/cm2 of 625 +/- 2 nanometer LED light for 1 hr and measured after 42 hrs by MTT assay; format: cell-based; details: Homo sapiens, light or radiation study
# MDA-MB-231 [24] = assay: Induction of apoptosis in human MDA-MB-231 cells assessed as necrotic cells at 2.5 uM under dark condition by annexin V-FITC/PI based flow cytometric analysis (reference value: 0.36 %); format: functional
# MDA-MB-231 [25] = assay: Induction of apoptosis in human MDA-MB-231 cells assessed as viable cells at 2.5 uM preincubated for 4 hrs followed by 625 +/- 2 nanometer LED light irradiation for 1 hr and measured after 18 hrs by annexin V-FITC/PI based flow cytometric analysis (reference value: 98.0 %); format: functional; details: MDA-MB-231, light or radiation study, time 23 hrs, read-out: Activity
# MDA-MB-231 [26] = assay: Induction of apoptosis in human MDA-MB-231 cells assessed as viable cells at 2.5 uM under dark condition by annexin V-FITC/PI based flow cytometric analysis (reference value: 99.0 %); format: functional; details: read-out: Activity
# [27] = Selectivity index, ratio of IC50 for HUVEC in presence of light irradiation to IC50 for human MDA-MB-231 cells in presence of light irradiation; format: toxicity; details: HUVEC and MDA-MB-231 cells, read-out: Ratio IC50
# [28] = Phototoxicity index, ratio of IC50 for cytotoxicity against mouse 4T1 cells measured under dark condition to IC50 for phototoxicity against mouse 4T1 cells upon LED light irradiation
# [29] = Absorption property of the compound in DMF assessed as Q band absorption wavelength at 1 uM by UV-visible spectrophotometric method; format: physicochemical
# [30] = Phototoxicity index, ratio of IC50 for cytotoxicity against HUVEC measured under dark condition to IC50 for phototoxicity against HUVEC upon LED light irradiation; details: human, read-out: Ratio IC50
# [31] = Absorption property of the compound in DMF assessed as soret band wavelength molar absorption coefficient at 1 uM by UV-visible spectrophotometric method; format: physicochemical
# MDA-MB-231 [32] = assay: Induction of apoptosis in human MDA-MB-231 cells assessed as late apoptotic cells at 2.5 uM under dark condition by annexin V-FITC/PI based flow cytometric analysis (reference value: 0.67 %); format: functional
# MDA-MB-231 [33] = assay: Induction of mitochondrial depolarization in human MDA-MB-231 cells at 2.5 uM in dark by JC1 staining based fluorescence microscopy; format: functional, cell-based
# [34] = Phototoxicity index, ratio of IC50 for cytotoxicity against human MDA-MB-231 cells measured under dark condition to IC50 for phototoxicity against human MDA-MB-231 cells upon LED light irradiation
# MDA-MB-231 [35] = assay: Induction of apoptosis in human MDA-MB-231 cells assessed as late apoptotic cells at 2.5 uM preincubated for 4 hrs followed by 625 +/- 2 nanometer LED light irradiation for 1 hr and measured after 18 hrs by annexin V-FITC/PI based flow cytometric analysis (reference value: 1.34 %); format: functional; details: time 23 hrs
# MDA-MB-231 [36] = assay: Induction of ROS generation in human MDA-MB-231 cells at 2.5 uM preincubated for 4 hrs followed by 625 +/- 2 nanometer LED light irradiation for 1 hr and measured after 18 hrs by DCFH-DA staining based fluorescence microscopy; format: functional, cell-based; details: time 23.0 hrs
# [37] = Drug uptake in human MDA-MB-231 cells at 10 uM incubated for 4 hrs by Hoechst 33342 staining based fluorescence microscopy; format: ADME, cell-based; details: mda-mb-231, 4 h
# [38] = Dark toxicity in HUVEC assessed as reduction in cell viability by MTT assay; format: cell-based; details: human
# MDA-MB-231 [39] = assay: Induction of cell cycle arrest in human MDA-MB-231 cells assessed as accumulation at G1 phase at 5 uM preincubated with 625 +/- 2 nanometer LED light irradiation for 1 hrs and measured after 24 hrs by RNase A/propidium iodide staining based flow cytometry analysis (reference value: 43.6 %); format: functional; details: time 25 hrs
smiles,measurement,setting,value
Oc1ccc(-c2c3nc(c(-c4c(F)c(F)c(F)c(F)c4F)c4ccc([nH]4)c4ccc([nH]4)c(-c4c(F)c(F)c(F)c(F)c4F)c4ccc2[nH]4)C=C3)cc1,Activity,[1],5.12 log
same,Activity,MDA-MB-231 [2],0.013%
same,Activity,[3],427 nm
same,IC50,4T1,0.3 µM
same,Activity,MDA-MB-231 [4],2.84%
same,Activity,MDA-MB-231 [5],23.2%
same,Activity,[6],4.62 log
same,Activity,MDA-MB-231 [7],17.5%
same,IC50,MDA-MB-231 [8],0.42 µM
same,Activity,MDA-MB-231 [9],5.29%
same,Drug uptake,[10],Active
same,Activity,[11],5.09 log
same,Drug uptake,[12],Tde
same,Activity,MDA-MB-231 [13],38.6%
same,Activity,MDA-MB-231 [14],inactive
same,Activity,[15],0.55
same,Activity,MDA-MB-231 [16],Active
same,IC50,[17],> 100 µM
same,Activity,MDA-MB-231 [18],46.7%
same,Drug uptake,[19],Active
same,Activity,MDA-MB-231 [20],18.1%
same,Activity,MDA-MB-231 [21],26.1%
same,IC50,[22],> 100 µM
same,Activity,MDA-MB-231 [23],0.095%
same,IC50,HUVEC,9.32 µM
same,Activity,MDA-MB-231 [24],0.72%
same,viability at 2.5 µM,MDA-MB-231 [25],64.5%
same,viability at 2.5 µM,MDA-MB-231 [26],98.3%
same,selectivity ratio,[27],22.2
same,Ratio IC50,[28],>333.33
same,Activity,[29],633 nm
same,selectivity ratio,[30],> 10.9
same,Activity,[31],443 nm
same,Activity,MDA-MB-231 [32],1.01%
same,Activity,MDA-MB-231 [33],inactive
same,Ratio IC50,[34],>238.1
same,Activity,MDA-MB-231 [35],30.1%
same,Activity,MDA-MB-231 [36],Active
same,Drug uptake,[37],Active
same,IC50,[38],> 100 µM
same,Activity,MDA-MB-231 [39],25.1%
Oc1cccc(-c2c3nc(c(-c4c(F)c(F)c(F)c(F)c4F)c4ccc([nH]4)c4ccc([nH]4)c(-c4c(F)c(F)c(F)c(F)c4F)c4ccc2[nH]4)C=C3)c1,Activity,[1],5.12 log
same,Activity,[3],428 nm
same,IC50,4T1,0.57 µM
same,Activity,[6],4.61 log
same,IC50,MDA-MB-231 [8],1.64 µM
same,Activity,[11],5.1 log
same,Activity,[15],0.46
same,IC50,[17],> 100 µM
same,IC50,[22],> 100 µM
same,IC50,HUVEC,0.89 µM
same,selectivity ratio,[27],0.54
same,Ratio IC50,[28],>175.44
same,Activity,[29],633 nm
same,selectivity ratio,[30],> 112
same,Activity,[31],443 nm
same,Ratio IC50,[34],>60.98
same,IC50,[38],> 100 µM
Oc1cccc(-c2c3nc(c(-c4cccc(O)c4)c4ccc([nH]4)c(-c4cccc(O)c4)c4nc(c(-c5cccc(O)c5)c5ccc2[nH]5)CC4)C=C3)c1 [TEMOPORFIN],IC50,4T1,0.05 µM
same,IC50,MDA-MB-231 [8],0.87 µM
same,IC50,[17],33.4 µM
same,IC50,[22],38 µM
same,IC50,HUVEC,1.5 µM
same,selectivity ratio,[27],1.72
same,Ratio IC50,[28],760.2
same,selectivity ratio,[30],> 66.7
same,Ratio IC50,[34],38.41
same,IC50,[38],> 100 µM
Oc1ccccc1-c1c2nc(c(-c3c(F)c(F)c(F)c(F)c3F)c3ccc([nH]3)c3ccc([nH]3)c(-c3c(F)c(F)c(F)c(F)c3F)c3ccc1[nH]3)C=C2,Activity,[1],5.11 log
same,Activity,[3],425 nm
same,IC50,4T1,0.46 µM
same,Activity,[6],4.57 log
same,IC50,MDA-MB-231 [8],5.81 µM
same,Activity,[11],5.08 log
same,Activity,[15],0.45
same,IC50,[17],50.8 µM
same,IC50,[22],> 100 µM
same,IC50,HUVEC,4.75 µM
same,selectivity ratio,[27],0.82
same,Ratio IC50,[28],>217.39
same,Activity,[29],629 nm
same,selectivity ratio,[30],> 21.1
same,Activity,[31],441 nm
same,Ratio IC50,[34],8.75
same,IC50,[38],> 100 µM
